Experimental data taken from US20130035358A1, “Bis Aromatic Compounds for Use as LTC4 Synthase Inhibitors” (priority 2010, published 2013).
Converted amounts (≈) assume the structure as drawn.

Key:
LTC4 synthase [1] = molecular target: T1, LTC4 synthase (Homo sapiens, UniProt Q16873); assay: Test 1 in vitro assay: LTC4 synthase converts LTA4 to LTC4, HTRF detection; format: biochemical; design: made in house; host or cells: Pichia pastoris; settings: Table 2; Test 1 (unless otherwise indicated)
T1 sequence (Q16873 1-150): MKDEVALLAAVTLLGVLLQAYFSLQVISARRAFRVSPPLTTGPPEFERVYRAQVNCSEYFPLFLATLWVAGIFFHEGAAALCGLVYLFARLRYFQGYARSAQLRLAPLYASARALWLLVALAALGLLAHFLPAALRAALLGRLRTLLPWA
Protocol: In the assay, LTC4 synthase catalyses the reaction where the substrate LTA4 is converted to LTC4. Recombinant human LTC4 synthase is expressed in Piccia pastoralis and the purified enzyme is dissolved in 25 mM tris-buffer pH 7.8 supplemented with 0.1 mM glutathione (GSH) and stored at −80° C. The assay is performed in phosphate buffered saline (PBS) pH 7.4 and 5 mM GSH in 384-well plates.
The following is added chronologically to each well:
1. 48 μL LTC4 synthase in PBS with 5 mM GSH. The total protein concentration in this solution is 0.5 μg/mL. 2. 1 μL inhibitor in DMSO (final concentration 10 μM). 3. Incubation of the plate at room temperature for 10 min. 4. 1 μL LTA4 (final concentration 2.5 μM). 5. Incubation of the plate at room temperature for 5 min. 6. 10 μL of the incubation mixture is analysed using homogenous time resolved fluorescent (HTRF) detection.
(§1) IC50 values for title compounds of the examples are depicted in the tables hereinafter (where, they are the values obtained using Test 1, unless otherwise indicated).

[2] = Thermodynamic aqueous solubility in USP phosphate buffer (Example 25); format: physicochemical; settings: aqueous buffer, thermodynamic from solid; USP phosphate buffer pH 7.4, 24 h at 20° C., LC-MS/MS; read-out: Thermodynamic aq solubility
Protocol: The method described here was developed to accurately determine the aqueous solubility of compounds of the invention in buffer solution at a given pH.
Solid material (1 mg) of test compound is added to a glass vial followed by 1 ml of buffer solution (pH 7.4 if another pH not is stated). The solution is left on an orbital shaker for 24 h at 20° C. After incubation, the remaining solid material is separated from solution and the solubility is quantified using LC-MS/MS.
Prepare 0.2 M monobasic potassium phosphate solution by dissolving 27.22 g of KH2PO4 (MW=136.09 g/mol) in water, dilute with water to 1000 mL.
Add 250 mL of the monobasic potassium phosphate solution in a 1000 mL volumetric flask together with 195.5 mL 0.2M NaOH (aq). Add water to 1000 mL. Check pH.
Compounds of the invention/examples to be tested were provided as solid material, weighed into glass vials (2 mL). Each vial contains approximately 1 mg solid compound, two vials/compound are prepared, i.e. duplicate samples of each compound. If a freshly prepared 10 mM DMSO stock solution was available, this solution was used for MS optimization and preparation of standards. If a DMSO-stock solution was not available, a 10 mM solution from solid material 1 mg was prepared.
• Test compounds are employed as solid material. Since duplicate samples are prepared for each compound, each test compound arrives in two vials (1+1 mg). Samples are denoted as sample 1 and 2. • Note amount of substance in each vial. Add USP phosphate buffer pH 7.4 (1 mL) to each sample vial and seal vials using screw caps. Determine whether the solutions are saturated or if compounds are dissolved, note appearance and time. Start incubation; the samples are incubated on an orbital shaker (450 rpm) at 20° C. for 24 hours.
• Take out the 1 mM DMSO-stock solutions of compounds that are to be tested from freezer. If no 1 mM solutions are available, use master solutions with concentration of 10 mM. Allow the solutions to thaw at rt. • Collect two 96-deep well plates, glass inserts, sealing film, and an 8-channel expandable pipette with tall tips. • Abort shaking after 24 hour. • Note if samples are saturated or if compounds have dissolved. • Transfer 720 μL of sample slurry from each sample vial into glass inserts in a 96-deep well plate using an 8-channel expandable pipette. Samples 1 and 2 are transferred to separate plates. Thus, all samples 1 are placed in one plate and all samples 2 in the second plate. • Seal the plates using sealing film. • Centrifuge the plates at 3000 rpm for 15 min at rt. Set acceleration to 9 and brake to 7 (9=fastest acc/brake, 0=slowest acc/brake). • Transfer the supernatants to new glass inserts using an 8-channel pipette, centrifuge samples a second time. • Repeat the procedure above, i.e. centrifuge samples a third time. • After the third centrifugation, transfer supernatant to glass vials, seal vials with screw caps. Control that the solutions are clear and that no particles are present in sample. If solid material is observed, an additional centrifugation step is performed. • Standards are prepared from DMSO-stock solutions (1 or 10 mM). For each compound, transfer […] 1 mM solution to a glass vial, add DMSO (90 μL) to reach a final concentration of 100 μM, seal with screw cap and mix solution quickly on a vortex mixer. Further dilute the 100 μM solution with a 1:1 mixture of acetonitrile and USP phosphate buffer (pH 7.4) to standards with concentration 1000, 500, 100, 25, 2, and 1 nM. Standards are prepared in test tubes.
• Place standards in autosampler. • Try out the dilution of solubility samples so that their response will be within the standard curve. Dilute solubility sample one (or two) with the 1:1 mixture of acetonitrile:buffer. […]

LTC4 synthase [3] = molecular target: T1, LTC4 synthase; assay: Test 2: LTC4 synthase IC50 procedure, ten concentrations, LTC4 HTRF kit; format: biochemical; settings: Table 2; cells marked (Test 2)
Protocol: For certain compounds, in order to obtain IC50-values for the compounds, following procedure was used: • 1. A volume (24 μL) of 0.25 μg/mL LTC4 synthase in 75 mM tris (pH ˜8.5), 0.5 mM MgCl2 and 3 mM GSH was preincubated for 10 min with 0.5 μL of compound of interest in DMSO at ten different concentrations, typically in the range 10^−9,5-10^−5M as well as with DMSO only. The buffer is used as background. Runs are performed in duplicates. • 2. The enzymatic reaction is initiated by addition of 0.5 μL LTA4 in diglyme (final assay concentration 8 μM). • 3. The reaction is stopped after 1 min by addition of double the reaction volume of a stop solution (MeOH:H2O:acetic acid 70:30:1). • 4. After 15 fold dilution in PBS, LTC4 formation is detected with LTC4 HTRF kit (Cisbio, cat. No 64LC4PEC) and a fluorescence reader. Typically 10 μL of sample is mixed with 5 μL of each of the HTRF reagents d2 and k and analyzed as described in the kit manual.
The detected product concentration, with background subtracted, is plotted versus compound concentration and IC50 is determined as 50% of maximum inhibition.
as §1

Structure (SMILES)	IC50 (LTC4 synthase [1])	solubility thermodynamic at 24 h [2]	IC50 (LTC4 synthase [3])
CN(c1ccc(Cl)cc1)c1ccc(C(=O)c2ccc(C(=O)CCC3CCCCC3)c(C(=O)O)c2)nc1 [Example 18, 5-(5-((4-Chlorophenyl)(methyl)amino)picolinoyl)-2-(3-cyclohexylpropanoyl)benzoic acid]	59 nM	37 µM (≈ 18.7 µg/mL)	
CC(=O)c1ccc(C(=O)c2ccc(N(CC3CC3)c3ccc(Cl)cc3)cn2)cc1C(=O)O [Example 22, 2-Acetyl-5-(5-((4-chlorophenyl)(cyclopropylmethyl)amino)picolinoyl)benzoic acid]		1860 µM (≈ 835 µg/mL)	307 nM
CCC(=O)c1ccc(C(=O)c2ccc(N(CC3CC3)c3ccc(Cl)cc3)cn2)cc1C(=O)O [Example 23, 5-(5-((4-Chlorophenyl)(cyclopropylmethyl)amino)picolinoyl)-2-propionylbenzoic acid]			129 nM

More lines, now with the values ahead:

IC50 (LTC4 synthase [1])	solubility thermodynamic at 24 h [2]	IC50 (LTC4 synthase [3])	Structure (SMILES)
94 nM	1980 µM (≈ 969 µg/mL)		CN(c1ccc(Cl)cc1)c1ccc(C(=O)c2ccc(C(=O)C3CC4CCC3C4)c(C(=O)O)c2)nc1 (centres unmarked) [Example 15, 2-(Bicyclo[2.2.1]heptane-2-carbonyl)-5-(5-((4-chlorophenyl)(methyl)amino)-picolinoyl)benzoic acid]
		424 nM	O=C(c1ccc(C(=O)C2CC2)c(C(=O)O)c1)c1ccc(N(CC2CC2)c2ccc(Cl)cc2)cn1 [Example 24, 5-(5-((4-Chlorophenyl)(cyclopropylmethyl)amino)picolinoyl)-2-(cyclopropanecarbonyl)benzoic acid]
